Values joined by “and” are separate entries in the source; they are usually repeats but may differ in a detail not shown here. Identical values can stand only once. Like-named read-outs stand apart in the source and are kept apart here.
Tests used:
[1] = molecular target: T1, PDK1 (Homo sapiens, UniProt O15530); assay: Thermo Fisher "PDK1 Direct" assay (peptide Ser/Thr 07, FRET readout); assay type: biochemical; details: for Hill slope, PDK1 direct / IC50: 10-point titration
T1 sequence (O15530 1-556): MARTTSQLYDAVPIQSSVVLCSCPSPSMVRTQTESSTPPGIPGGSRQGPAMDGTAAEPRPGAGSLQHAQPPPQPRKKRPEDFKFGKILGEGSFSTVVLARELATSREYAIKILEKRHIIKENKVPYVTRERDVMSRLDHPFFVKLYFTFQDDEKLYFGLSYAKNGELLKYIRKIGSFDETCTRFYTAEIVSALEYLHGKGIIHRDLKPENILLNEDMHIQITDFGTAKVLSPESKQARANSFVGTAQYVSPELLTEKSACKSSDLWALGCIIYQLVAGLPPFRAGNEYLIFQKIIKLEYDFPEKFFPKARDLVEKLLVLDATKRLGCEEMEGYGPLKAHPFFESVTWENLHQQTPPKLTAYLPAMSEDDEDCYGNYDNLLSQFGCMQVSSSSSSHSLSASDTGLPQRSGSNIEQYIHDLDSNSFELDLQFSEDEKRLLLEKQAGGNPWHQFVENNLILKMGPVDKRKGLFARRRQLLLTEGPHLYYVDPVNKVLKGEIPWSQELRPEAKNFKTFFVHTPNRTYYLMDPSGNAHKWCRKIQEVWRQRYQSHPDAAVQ

[2] = molecular target: T2, GST-PDK1_1-556 (Homo sapiens, UniProt O15530); assay: AlphaScreen biotin-PIP3 / GST-PDK1_1-556 displacement; assay type: binding; details: PIP3 20 nM, GST-PDK1 3 nM
T2 construct: made in house; host or cells: HEK293 cells (transient transfection of pEBG2T); peptide synthesized by Pepscan
T2 sequence (O15530 1-556): T1 sequence (O15530 1-556)
Protocol: The AlphaScreen® assay was performed following the general guidelines from the manufacturer (Perkin Elmer) ([29]). In short, the assay was performed in a final volume of 25 μl in white 384-well microtiter plates (Greiner) in a standard buffer containing 50 mM Tris-HCl (pH 7.4), 100 mM NaCl, 2 mM DTT, 0.01% (v/v) Tween-20 and 0.1% (w/v) BSA, with the addition of 5 μl of beads (anti-GST coated acceptor beads and streptavidin-coated donor beads; nickel chelate-coated acceptor beads and streptavidin-coated donor beads; or nickel chelate-coated acceptor beads and GSH-coated donor beads, 20 μg/ml final concentrations for each bead type). AlphaScreen assays for His-tagged proteins and GST-fusion proteins were performed using nickel chelate-coated acceptor beads and GSH-coated donor beads; alphascreen assays for His-tagged proteins and biotinylated molecules were performed using nickel chelate-coated acceptor beads and streptavidin-coated donor beads; alphascreen assays for GST-fusion proteins and biotinylated molecules were performed using anti-GST coated acceptor beads and streptavidin-coated donor beads (Perkin Elmer).
The conditions for each AlphaScreen assay were identified in cross-titration experiments for each interaction to choose the ideal pair of concentrations within the linear range of the interactions. As required, the standard conditions were modified to use less material, to increase binding of the interacting molecules, to lower background signal, and so on. His-PDK1 and GST-fusion protein in the presence or absence of the different compounds were incubated in the dark for 60 min at room temperature and the emission of light from the acceptor beads was measured in an EnVision reader (Perkin Elmer) or Spark plate reader (Tecan). AlphaScreen assays were performed at least twice, although most experiments were performed multiple times by different researchers with different batches of purified proteins with similar results.
Biotin-PIP3 interactions with GST-PDK1_1-556 or GST-PDK1_360-556 were assessed in the standard buffer. […]

[3] = molecular target: T3, PDK1_1-556 (Homo sapiens, UniProt O15530); assay: Differential scanning fluorimetry, thermal stability of PDK1_1-556; assay type: binding; details: PDK1 1 μM
T3 construct: effect of HYG8 on the thermal stability (ΔTm) of PDK1_1-556 (H) and PDK1_50-359 (I); His (N); made in house; host or cells: Sf9 insect cells (baculovirus)
T3 sequence (O15530 1-556): T1 sequence (O15530 1-556)

[4] = molecular target: T4, His-PDK1_1-556 and GST-PDK1_360-556 (Homo sapiens, UniProt O15530); assay: AlphaScreen PDK1 dimerization assay His-PDK1_1-556 / GST-PDK1_360-556; assay type: binding
T4 construct: made in house; host or cells: Sf9 insect cells (His-PDK1_1-556); HEK293 cells (GST-PDK1_360-556)
T4 sequence (O15530 1-556): T1 sequence (O15530 1-556)

[5] = replicate point 1, read-out: % Inhibition Point 1
[6] = replicate point 2, read-out: % Inhibition Point 2
[7] = single point, N=2, read-out: Inhibition at 1 μM (%)
[8] = absence of PIFtide, read-out: IC50 (nM), displacement of His-PDK1_1-556 interaction with GST-PDK1_360-556
[9] = with PIFtide, read-out: IC50 (nM), displacement of His-PDK1_1-556 interaction with GST-PDK1_360-556 with PIFtide

Row | inhibition at 1 µM [1, 5] [%] | inhibition at 1 µM [1, 6] [%] | inhibition at 1 µM [1, 7] [%] | Hill slope, PDK1 direct [1] | IC50 [1] [nM] | displacement of PIP3 from GST-PDK1_1-556 [2] | Tm (°C), temperature stabilization of PDK1_1-556 ([3]; compound 1 µM) | Tm (°C), temperature stabilization of PDK1_1-556 ([3]; compound 20 µM) | IC50 [4, 8] [nM] | IC50 [4, 9] [nM] | Structure (SMILES)
1 | 97 | 98 | 98 | 1.39 | 24.5 | higher potency than IP5 | 11.7 °C and 11-15 °C | 13.7 °C and 13-16 °C | 33.3 | 19.5 | O=C(O[C@H]1[C@@H](OP(=O)(O)O)[C@H](OP(=O)(O)O)[C@@H](OP(=O)(O)O)[C@H](OP(=O)(O)O)[C@H]1OP(=O)(O)O)c1ccccc1 [HYG8, 2-O-benzoyl-IP5]
2 | 98 | 101 | 100 | 1.61 | 16.2 | almost completely displaced | 15.2 °C and 11-15 °C | 16.5 °C and 13-16 °C | 29.6 | 29.4 | CCCCO[C@H]1[C@@H](OP(=O)(O)O)[C@H](OP(=O)(O)O)[C@@H](OP(=O)(O)O)[C@H](OP(=O)(O)O)[C@H]1OP(=O)(O)O [HYG14, 2-O-butyl-IP5]

From PMC7614687, “Modulation of the substrate specificity of the kinase PDK1 by distinct conformations of the full-length protein*” (Science signaling, 2023)
